In US20080089956A1, “NITRIC OXIDE IN TREATMENT OF INFLAMMATION” (AGA AB, priority 2003, published 2008):
Entries after “also recorded” stand apart in the source; their conditions may differ.

Key:
Format in all cases: in vivo, piglets of Swedish country breed
[1] = system: endotoxin pig model (LPS-induced acute lung injury and septic shock); experiment: Haemodynamics and arterial oxygenation in endotoxin (LPS) pig model
Method: (§1) The pigs were divided into 5 groups: • 1. Normal control group • 2. Endotoxin (lipopolysaccharide, LPS) group • 3. LPS+INO group • 4. LPS+steoid group • 5. LPS +INO +steroid group • The different protocols are shown schematically in FIG. 1 and are described below. 1. Healthy Control Group (n=8)
(§2) After baseline measurements, acute lung injury and septic shock was induced by intravenous infusion of LPS 25 μg/kg/h in saline for 2.5 h, followed by 10 μg/kg/h for the remainder of the study. The pigs were followed by hemodynamics and blood gas measurements and were killed at the end of the experiment and tissue samples were taken, as described above.
(§3) LPS infusion was started after baseline measurements and continued for 6 hours. Two and half hours after commencement of the endotoxin infusion, inhalation of NO 30 ppm was started and maintained for 3.5 hours. Measurements were taken every hour to check for any protective effect of INO therapy on the lung and extra-pulmonary organs.
(§4) This group received endotoxin over 6 hours, as described above, and 2.5 hours after the start of endotoxin administration steroids were given i.v. and INO, 30 ppm, was commenced and continued for the remaining 3.5 hours study period.
(§5) NO, 1000 ppm in N2, was added to a mixture of O2/N2 and administered through the low-flow inlet of the ventilator. The inspired gas was passed through a canister containing soda lime to absorb any NO2. […] The concentrations of inspired NO and NO2 were measured continuously, by chemiluminescence (9841 NOx, Lear Siegler Measurement Controls Corporation, Englewood, Colo., USA), in the inspiratory limb of the ventilator tubing.

[2] = system: glucocorticoid receptor; experiment: GR expression, immunohistochemical staining of tissue from endotoxin-exposed piglets; settings: compared with LPS group
Method: (§6) Anesthesia, surgery preparation and catheterizations were followed by 30 min of rest. Baseline measurements were then made. The pigs were followed for another 6 hours to establish control data over the whole study period. The pigs were killed after the last measurement with an intra-venous injection of KCl; and tissue samples were taken from the lung, liver and kidney for morphological and biochemical studies.
(§7) Anesthesia, surgery and catheterizations were similar to the controls. After baseline measurements, acute lung injury and septic shock was induced by intravenous infusion of LPS 25 μg/kg/h in saline for 2.5 h, followed by 10 μg/kg/h for the remainder of the study. […]
(§8) The antibodies were detected with the peroxidase-anti-peroxidase method using 3-amino-9-ethyl-carbazole (AEC, SIGMA Catalogue No. A-6926 Germany) as chromogen. […]
(§9) An image-analysis system consisting of a 12-bit cooled charge-coupled device camera (Sensys KAF 1400, Photometrics, Tucson, AZ) mounted on a fully automated Leica (Wetzlar, Germany) DM RXA microscope was used to digitize grey-scale images to a dual-Pentium 200 MHz host computer. […] The optimal central wavelength was determined by measurement of the substrate in a Leica MPV SP microscope photometer system (courtesy of Leica).

[3] = system: NF-κB; experiment: Expression of NF-κB, immunohistochemical staining of tissue from endotoxin-exposed piglets
Method: as §6, §7, §8, §9

[4] = system: endotoxin pig model (LPS-induced acute lung injury and septic shock); experiment: Histological changes of lung, liver and kidney tissues in endotoxin pig model; design: Congestion / Inflammatory cell infiltrate / Congestion and hemorrhage / Edema/ Hemorrage: key to the marks not given beside the values
Method: as §1, §6, §2, §3, §4
as §5, with “tubing. FIO2 was checked after addition of NO and kept stable at the pre-INO level.” for “tubing.”

[5] = piglets during 6 h endotoxin infusion, treatment from 2.5 h
[6] = Kidney, piglets, LPS infusion 6 h, treatment from 2.5 h (INO 30 ppm; hydrocortisone 3.5 mg/kg i.v.)
[7] = Liver, piglets, LPS infusion 6 h, treatment from 2.5 h (INO 30 ppm; hydrocortisone 3.5 mg/kg i.v.)

nitric oxide [LPS + INO]
arterial oxygenation (PaO2), effect in words [1, 5]: improved oxygenation; also recorded: prevented part of the fall in PaO2
mean pulmonary artery pressure (MPAP), effect in words [1, 5]: lowered MPAP but not back to normal; also recorded: attenuated the increase in MPAP
MPAP higher than in healthy controls ([1]; piglets during endotoxin infusion with INO 30 ppm, p<0.01 vs healthy controls): 75-80%
expression of glucocorticoid receptor in lung tissue, in words [2]: significantly raised
NF-kB expression in lung tissue, in words [3]: at a low level
histology changes of kidney tissue, in words ([4]; Kidney, endotoxin-exposed piglets, compared with LPS group / healthy): even less marked than in the LPS+Steroid group
Edema/ Hemorrage [4, 6]: +++
Inflammatory cell infiltrate [4, 6]: +++
histology changes of liver tissue, in words ([4]; Liver, endotoxin-exposed piglets, compared with LPS group / healthy): much less than in the LPS group
Congestion and hemorrhage [4, 7]: ++
Destruction of the lobular structure [4, 7]: +
Inflammatory cell infiltrate [4, 7]: +++
histology changes of lung tissue, in words ([4]; Lung, endotoxin-exposed piglets, compared with LPS group / healthy): even less of these changes
Inflammatory cell infiltrate ([4]; Lung, piglets, LPS infusion 6 h, treatment from 2.5 h (INO 30 ppm for 3.5 h; hydrocortisone 3.5 mg/kg i.v.)): +++
Congestion ([4]; Lung, piglets, LPS infusion 6 h, treatment from 2.5 h (INO 30 ppm; hydrocortisone 3.5 mg/kg i.v.)): +++
inflammatory response, in words ([4]; endotoxin pig model, lung, liver and kidney (discussion)): attenuated the inflammatory response but only to a limited degree
